System: MV-4-11 cells
Assay: Gene expression microarray analysis (Affymetrix PrimeView) and GSEA
Assay type: cell-based, human
Parameters: RFU PODN (11730768_x_at) / Fold change /veh PODN (11730768_x_at) / RFU LINC00158 (11744669_a_at) / Fold change /veh LINC00158 (11744669_a_at) / RFU DUSP10 (11751237_a_at) / Fold change /veh DUSP10 (11751237_a_at) / RFU ID3 (11757404_x_at) / Fold change /veh ID3 (11757404_x_at) / RFU PLEKHG5 (11737974_s_at) / Fold change /veh PLEKHG5 (11737974_s_at) / RFU LRRC4B (11730491_at) / Fold change /veh LRRC4B (11730491_at) / RFU GIMAP4 (11747438_a_at) / Fold change /veh GIMAP4 (11747438_a_at) / RFU KRT8 (11758183_x_at) / Fold change /veh KRT8 (11758183_x_at) / RFU CNN1 (11734310_a_at) / Fold change /veh CNN1 (11734310_a_at) / RFU VPS37D (11726825_at) / Fold change /veh VPS37D (11726825_at) / RFU C10orf10 (11716522_x_at) / Fold change /veh C10orf10 (11716522_x_at) / RFU KIR2DL2 /// KIR2DL4 /// KIR2DL5A /// KIR2DL5B /// KIR2DS1 /// KIR2DS2 /// KIR2DS3 /// KIR2DS4 /// KIR3DL3 /// KIR3DL3 /// KIR3DS1 (11738374_at) / Fold change /veh KIR2DL2 /// KIR2DL4 /// KIR2DL5A /// KIR2DL5B /// KIR2DS1 /// KIR2DS2 /// KIR2DS3 /// KIR2DS4 /// KIR3DL3 /// KIR3DL3 /// KIR3DS1 (11738374_at) / RFU C1QL1 (11718748_at) / Fold change /veh C1QL1 (11718748_at) / RFU TMPRSS4 (11747572_a_at) / Fold change /veh TMPRSS4 (11747572_a_at) / RFU HAMP (11756126_x_at) / Fold change /veh HAMP (11756126_x_at) / RFU RNFT2 (11725882_a_at) / Fold change /veh RNFT2 (11725882_a_at) / RFU NR4A2 (11747474_a_at) / Fold change /veh NR4A2 (11747474_a_at) / RFU ABCC12 (11746883_a_at) / Fold change /veh ABCC12 (11746883_a_at) / RFU TMEM136 (11760407_x_at) / Fold change /veh TMEM136 (11760407_x_at) / RFU CLDN22 /// WWC2 (11732394_at) / Fold change /veh CLDN22 /// WWC2 (11732394_at) / RFU HLA-DPB1 (11760878_x_at) / Fold change /veh HLA-DPB1 (11760878_x_at) / RFU SPINT1 (11716480_a_at) / Fold change /veh SPINT1 (11716480_a_at) / RFU GAP43 (11754022_s_at) / Fold change /veh GAP43 (11754022_s_at) / RFU A4GNT (11735810_at) / Fold change /veh A4GNT (11735810_at) / RFU PRB3 (11715151_x_at) / Fold change /veh PRB3 (11715151_x_at) / RFU TUBB4B (11761932_at) / Fold change /veh TUBB4B (11761932_at) / RFU CAPN14 (11732068_a_at) / Fold change /veh CAPN14 (11732068_a_at) / RFU TMCC2 (11721928_a_at) / Fold change /veh TMCC2 (11721928_a_at) / RFU IRGQ (11745062_a_at) / Fold change /veh IRGQ (11745062_a_at) / RFU FAM174B (11720279_a_at) / Fold change /veh FAM174B (11720279_a_at) / RFU TMPRSS4 (11748680_a_at) / Fold change /veh TMPRSS4 (11748680_a_at) / RFU FAM212B (11763350_a_at) / Fold change /veh FAM212B (11763350_a_at) / RFU PLEKHG5 (11743358_a_at) / Fold change /veh PLEKHG5 (11743358_a_at) / RFU ZSCAN30 (11745921_a_at) / Fold change /veh ZSCAN30 (11745921_a_at) / RFU CMKLR1 (11741424_a_at) / Fold change /veh CMKLR1 (11741424_a_at) / RFU LOC101060620 /// MAPK8IP1 (11723275_at) / Fold change /veh LOC101060620 /// MAPK8IP1 (11723275_at) / RFU SPTSSB (11747773_x_at) / Fold change /veh SPTSSB (11747773_x_at) / RFU PRSS12 (11739890_at) / Fold change /veh PRSS12 (11739890_at) / RFU BIN1 (11741810_x_at) / Fold change /veh BIN1 (11741810_x_at) / RFU WNT11 (11732464_a_at) / Fold change /veh WNT11 (11732464_a_at) / RFU C10orf10 (11716521_a_at) / Fold change /veh C10orf10 (11716521_a_at) / RFU C5orf56 (11738089_at) / Fold change /veh C5orf56 (11738089_at) / RFU CYB561 (11721691_x_at) / Fold change /veh CYB561 (11721691_x_at) / RFU ANKRD19P (11752326_a_at) / Fold change /veh ANKRD19P (11752326_a_at) / RFU OR2T12 /// OR2T33 /// OR2T8 (11738714_s_at) / Fold change /veh OR2T12 /// OR2T33 /// OR2T8 (11738714_s_at) / RFU VCAN (11748164_a_at) / Fold change /veh VCAN (11748164_a_at) / RFU JSRP1 (11732532_at) / Fold change /veh JSRP1 (11732532_at) / RFU KRTAP10-11 (11738290_x_at) / Fold change /veh KRTAP10-11 (11738290_x_at) / RFU MYO3A (11730013_a_at) / Fold change /veh MYO3A (11730013_a_at) / RFU EBF3 (11725865_a_at) / Fold change /veh EBF3 (11725865_a_at) / RFU CAMK2N1 (11719241_x_at) / Fold change /veh CAMK2N1 (11719241_x_at) / RFU C5orf56 (11738088_a_at) / Fold change /veh C5orf56 (11738088_a_at) / RFU OLFML3 (11715873_a_at) / Fold change /veh OLFML3 (11715873_a_at) / RFU LOC100653217 /// NTM (11731650_a_at) / Fold change /veh LOC100653217 /// NTM (11731650_a_at) / RFU MAPK11 (11762145_a_at) / Fold change /veh MAPK11 (11762145_a_at) / RFU FIZ1 (11724087_x_at) / Fold change /veh FIZ1 (11724087_x_at) / RFU OASL (11726364_x_at) / Fold change /veh OASL (11726364_x_at) / RFU SOX15 (11748057_x_at) / Fold change /veh SOX15 (11748057_x_at) / RFU CD79A (11719716_a_at) / Fold change /veh CD79A (11719716_a_at) / RFU HIST1H1D (11736915_at) / Fold change /veh HIST1H1D (11736915_at) / RFU CASKIN2 (11723855_a_at) / Fold change /veh CASKIN2 (11723855_a_at) / RFU LOC730098 (11760151_x_at) / Fold change /veh LOC730098 (11760151_x_at) / RFU OR4N2 (11742367_at) / Fold change /veh OR4N2 (11742367_at) / RFU PRRT2 (11749266_a_at) / Fold change /veh PRRT2 (11749266_a_at) / RFU SNX32 (11753110_a_at) / Fold change /veh SNX32 (11753110_a_at) / RFU CDHR5 (11726645_a_at) / Fold change /veh CDHR5 (11726645_a_at) / RFU RCAN1 (11760418_a_at) / Fold change /veh RCAN1 (11760418_a_at) / RFU FAM167A (11723789_a_at) / Fold change /veh FAM167A (11723789_a_at) / RFU FAM26E (11764081_at) / Fold change /veh FAM26E (11764081_at) / RFU ISYNA1 (11749810_s_at) / Fold change /veh ISYNA1 (11749810_s_at) / RFU ACY1 (11761880_at) / Fold change /veh ACY1 (11761880_at) / RFU 11764098_at / Fold change /veh 11764098_at / RFU SAMD14 (11745864_x_at) / Fold change /veh SAMD14 (11745864_x_at) / RFU NPB (11741838_a_at) / Fold change /veh NPB (11741838_a_at) / RFU TMPRSS6 (11731388_a_at) / Fold change /veh TMPRSS6 (11731388_a_at) / RFU KRTAP10-2 (11738614_at) / Fold change /veh KRTAP10-2 (11738614_at) / RFU ARHGAP8 /// PRR5-ARHGAP8 (11727945_x_at) / Fold change /veh ARHGAP8 /// PRR5-ARHGAP8 (11727945_x_at) / RFU KRTAP5-7 /// NADSYN1 (11734609_at) / Fold change /veh KRTAP5-7 /// NADSYN1 (11734609_at) / RFU RASL12 (11751679_a_at) / Fold change /veh RASL12 (11751679_a_at) / RFU CDKN2B (11736163_a_at) / Fold change /veh CDKN2B (11736163_a_at) / RFU PRF1 (11729649_at) / Fold change /veh PRF1 (11729649_at) / RFU, ZNF638 /// ZNF638-IT1 / Fold change vs veh, ZNF638 /// ZNF638-IT1 / RFU, PANK3 / Fold change vs veh, PANK3 / RFU, SH3YL1 / Fold change vs veh, SH3YL1 / RFU, ZEB2 / Fold change vs veh, ZEB2 / RFU, NRIP1 / Fold change vs veh, NRIP1 / RFU, PTTG1IP / Fold change vs veh, PTTG1IP / RFU, CAPN2 / Fold change vs veh, CAPN2 / RFU, MED14 / Fold change vs veh, MED14 / RFU, SNORA58 / Fold change vs veh, SNORA58 / RFU, C1orf63 / Fold change vs veh, C1orf63 / RFU, LRRFIP1 / Fold change vs veh, LRRFIP1 / RFU, NDUFAF7 / Fold change vs veh, NDUFAF7 / RFU, SLC12A2 / Fold change vs veh, SLC12A2 / RFU, IBTK / Fold change vs veh, IBTK / RFU, ESF1 / Fold change vs veh, ESF1 / Fold change vs veh, TMEM50B / RFU, TAOK1 / Fold change vs veh, TAOK1 / RFU, ACBD3 / Fold change vs veh, ACBD3 / RFU, TMA16 / Fold change vs veh, TMA16 / RFU, RWDD3 / Fold change vs veh, RWDD3 / RFU, BCAT1 / Fold change vs veh, BCAT1 / RFU, EDEM3 / Fold change vs veh, EDEM3 / RFU, TMEM33 / Fold change vs veh, TMEM33 / RFU, WDR75 / Fold change vs veh, WDR75 / RFU, AHCTF1 / Fold change vs veh, AHCTF1 / RFU, TFRC / Fold change vs veh, TFRC / RFU, ZDHHC17 / Fold change vs veh, ZDHHC17 / RFU, NOM1 / Fold change vs veh, NOM1 / RFU, ARL8B / Fold change vs veh, ARL8B / RFU, ZBTB11 / Fold change vs veh, ZBTB11 / RFU, TAMM41 / Fold change vs veh, TAMM41 / RFU, KIAA1704 /// LOC100996395 / Fold change vs veh, KIAA1704 /// LOC100996395 / RFU, ING1 / Fold change vs veh, ING1 / RFU, TRMT61B / Fold change vs veh, TRMT61B / RFU, FUBP3 / Fold change vs veh, FUBP3 / RFU, TP53 / Fold change vs veh, TP53 / RFU, TNKS2 / Fold change vs veh, TNKS2 / RFU, ZFP14 / Fold change vs veh, ZFP14 / RFU, ACTR2 / Fold change vs veh, ACTR2 / RFU, PPP3R1 / Fold change vs veh, PPP3R1 / RFU, PIK3R1 / Fold change vs veh, PIK3R1 / RFU, HNRNPA1 / Fold change vs veh, HNRNPA1 / RFU, RNF170 / Fold change vs veh, RNF170 / RFU, ZNF28 / Fold change vs veh, ZNF28 / RFU, RNGTT / Fold change vs veh, RNGTT / RFU, OGT / Fold change vs veh, OGT / RFU, BRD1 / Fold change vs veh, BRD1 / RFU, MARS / Fold change vs veh, MARS / RFU, ZNF655 / Fold change vs veh, ZNF655 / RFU, FAHD1 / Fold change vs veh, FAHD1 / RFU, BDP1 / Fold change vs veh, BDP1 / RFU, LRRCC1 / Fold change vs veh, LRRCC1 / RFU, ARID1A / Fold change vs veh, ARID1A / RFU, ZNF146 / Fold change vs veh, ZNF146 / RFU, ZNF330 / Fold change vs veh, ZNF330 / RFU, GPN3 / Fold change vs veh, GPN3 / RFU, C9orf123 / Fold change vs veh, C9orf123 / RFU, N4BP2L2 / Fold change vs veh, N4BP2L2 / RFU, ARFIP1 / Fold change vs veh, ARFIP1 / RFU, FAM179B / Fold change vs veh, FAM179B / RFU, BCL10 / Fold change vs veh, BCL10 / RFU, UHRF1BP1L / Fold change vs veh, UHRF1BP1L / RFU, BET1 / Fold change vs veh, BET1 / RFU, CNOT2 / Fold change vs veh, CNOT2 / RFU, ZNF268 / Fold change vs veh, ZNF268 / Fold change vs veh, ZNF507 / RFU, DGCR2 / Fold change vs veh, DGCR2 / RFU, WDSUB1 / Fold change vs veh, WDSUB1 / Fold change vs veh, HSP90B1 /// MIR3652 / RFU, ADSS / Fold change vs veh, ADSS / RFU, GK / Fold change vs veh, GK / RFU, ZNF148 / Fold change vs veh, ZNF148 / RFU, TAF9 / Fold change vs veh, TAF9 / RFU, SLC1A5 / Fold change vs veh, SLC1A5 / RFU, SLMO2 / Fold change vs veh, SLMO2 / RFU, ABCC4 / Fold change vs veh, ABCC4 / RFU, LOC101060439 /// RAP1B / Fold change vs veh, LOC101060439 /// RAP1B / RFU, RFX7 / Fold change vs veh, RFX7 / RFU, GTPBP10 / Fold change vs veh, GTPBP10 / RFU, CNEP1R1 / Fold change vs veh, CNEP1R1 / RFU, BIVM-ERCC5 /// ERCC5 / Fold change vs veh, BIVM-ERCC5 /// ERCC5 / RFU, ILF3 / Fold change vs veh, ILF3 / RFU 11762660_at / Fold change /veh 11762660_at / RFU VCAN (11757783_s_at) / Fold change /veh VCAN (11757783_s_at) / RFU DDX43 (11728927_at) / Fold change /veh DDX43 (11728927_at) / RFU KRT8 (11758188_x_at) / Fold change /veh KRT8 (11758188_x_at) / RFU NKD1 (11759106_at) / Fold change /veh NKD1 (11759106_at) / RFU SRD5A1 (11742802_a_at) / Fold change /veh SRD5A1 (11742802_a_at) / RFU TPSAB1 /// TPSB2 (11721975_s_at) / Fold change /veh TPSAB1 /// TPSB2 (11721975_s_at) / RFU GSTM3 (11746129_a_at) / Fold change /veh GSTM3 (11746129_a_at) / RFU IL23R (11737362_x_at) / Fold change /veh IL23R (11737362_x_at) / RFU TMEM51 (11727254_a_at) / Fold change /veh TMEM51 (11727254_a_at) / RFU PIWIL2 (11732686_x_at) / Fold change /veh PIWIL2 (11732686_x_at) / RFU ORM1 (11744905_x_at) / Fold change /veh ORM1 (11744905_x_at) / RFU CCDC152 (11743942_at) / Fold change /veh CCDC152 (11743942_at) / RFU ECM1 (11717891_a_at) / Fold change /veh ECM1 (11717891_a_at) / RFU IL23R (11748794_a_at) / Fold change /veh IL23R (11748794_a_at) / RFU TNFAIP8L3 (11732012_x_at) / Fold change /veh TNFAIP8L3 (11732012_x_at) / RFU MBOAT4 (11741988_at) / Fold change /veh MBOAT4 (11741988_at) / RFU 11764193_at / Fold change /veh 11764193_at / RFU TMEM53 (11763286_at) / Fold change /veh TMEM53 (11763286_at) / RFU MAGEB2 (11727129_at) / Fold change /veh MAGEB2 (11727129_at) / RFU TMEM200A (11744735_a_at) / Fold change /veh TMEM200A (11744735_a_at) / RFU CCDC152 (11751479_a_at) / Fold change /veh CCDC152 (11751479_a_at) / RFU FAM211A (11726209_a_at) / Fold change /veh FAM211A (11726209_a_at) / RFU RGS16 (11746705_a_at) / Fold change /veh RGS16 (11746705_a_at) / RFU VCAN (11755009_s_at) / Fold change /veh VCAN (11755009_s_at) / RFU RHOB (11743442_s_at) / Fold change /veh RHOB (11743442_s_at) / RFU RGS16 (11720943_a_at) / Fold change /veh RGS16 (11720943_a_at) / RFU RGS16 (11720944_at) / Fold change /veh RGS16 (11720944_at) / RFU, VPS4B / Fold change vs veh, VPS4B / RFU, CREB1 / Fold change vs veh, CREB1 / RFU, DNAJC13 / Fold change vs veh, DNAJC13 / RFU, GNAQ / Fold change vs veh, GNAQ / RFU, CDK5R1 / Fold change vs veh, CDK5R1 / RFU, ZRANB3 / Fold change vs veh, ZRANB3 / RFU, CUL4A / Fold change vs veh, CUL4A / RFU, CCNY / Fold change vs veh, CCNY / RFU, UFL1 / Fold change vs veh, UFL1 / RFU, COG3 / Fold change vs veh, COG3 / RFU, DIAPH2 / Fold change vs veh, DIAPH2 / RFU, SKA2 / Fold change vs veh, SKA2 / RFU, AFF3 / Fold change vs veh, AFF3 / RFU, LMF1 / Fold change vs veh, LMF1 / RFU, IPO11 / Fold change vs veh, IPO11 / RFU, DFFB / Fold change vs veh, DFFB / RFU, FOXP1 / Fold change vs veh, FOXP1 / RFU, CARD8 / Fold change vs veh, CARD8 / RFU, STRN3 / Fold change vs veh, STRN3 / RFU, ADK / Fold change vs veh, ADK / RFU, RASSF2 / Fold change vs veh, RASSF2 / RFU, WIPF1 / Fold change vs veh, WIPF1 / RFU, LARP1B / Fold change vs veh, LARP1B / RFU, RASA1 / Fold change vs veh, RASA1 / RFU, RB1 / Fold change vs veh, RB1 / RFU, PPFIA1 / Fold change vs veh, PPFIA1 / RFU, MAT2A / Fold change vs veh, MAT2A / RFU, CCT5 / Fold change vs veh, CCT5 / RFU, WDR92 / Fold change vs veh, WDR92 / RFU, CUX1 / Fold change vs veh, CUX1 / RFU, TTC7A / Fold change vs veh, TTC7A / RFU, TMEM135 / Fold change vs veh, TMEM135 / RFU, DEPTOR / Fold change vs veh, DEPTOR / RFU, CPM / Fold change vs veh, CPM / RFU, DNAJB6 / Fold change vs veh, DNAJB6 / RFU, CACNA2D3 / Fold change vs veh, CACNA2D3 / RFU, DTX4 / Fold change vs veh, DTX4 / RFU, TFCP2 / Fold change vs veh, TFCP2 / RFU, GMCL1 /// GMCL1P1 / Fold change vs veh, GMCL1 /// GMCL1P1 / RFU, AEBP2 / Fold change vs veh, AEBP2 / RFU, SNHG1 /// SNORD22 /// SNORD25 /// SNORD26 /// SNORD27 /// SNORD28 /// SNORD29 /// SNORD31 / Fold change vs veh, SNHG1 /// SNORD22 /// SNORD25 /// SNORD26 /// SNORD27 /// SNORD28 /// SNORD29 /// SNORD31 / Fold change (Aza/veh), C12orf56 (ProbeSet 11735607_a_at) / Fold change (ACY-1035/veh), C12orf56 (ProbeSet 11735607_a_at) / Fold change (Aza/veh), FGFR1OP (ProbeSet 11751329_s_at) / Fold change (ACY-1035/veh), FGFR1OP (ProbeSet 11751329_s_at) / Fold change (Aza/veh), VPS36 (ProbeSet 11739960_a_at) / Fold change (ACY-1035/veh), VPS36 (ProbeSet 11739960_a_at) / RFU SYPL1 (11715823_x_at) / Fold change /veh SYPL1 (11715823_x_at) / RFU IGFBP7 (11715501_s_at) / Fold change /veh IGFBP7 (11715501_s_at) / RFU REEP3 (11722064_at) / Fold change /veh REEP3 (11722064_at) / RFU IGLL1 (11728026_x_at) / Fold change /veh IGLL1 (11728026_x_at): dose or concentration left out as unconfirmed
Details: ProbeSet 11720269_a_at; LIST B

Structure (SMILES): Nc1ncn([C@@H]2O[C@H](CO)[C@@H](O)[C@H]2O)c(=O)n1 [azacitidine]
- RFU, IBTK: 763.53 RFU
